Experiments:
Type in all cases: cell-based
[1] = tested on: rFpr1, rFpr2 expression in NRCM; assay: Fpr gene expression in neonatal rat cardiomyocytes (real-time PCR); settings: 1 μM, 48 h incubation
Description: Isolation and culture of primary rat cardiomyocytes and mouse cardiac fibroblasts: All materials used for cell isolation were of tissue culture grade. Isolation of primary neonatal rat cardiac cardiomyocytes (NRCM) and adult mouse cardiac fibroblasts (AMCF) was performed by serial enzymatic digestion, as previously described (Irvine et al 2012 & Irvine et al. 3) NRCM were plated onto either 12-well tissue culture plates (for simulated ischemia-reperfusion, via hypoxia-reoxygenation, H-R) or 60 mm tissue culture dishes (for gene expression) at a density of 1.3×10^5 cells/cm^2, in the presence of 1% 5-bromo-2′-deoxyuridine. AMCF (passage #3) were seeded onto 60 mm tissue culture dishes at 9.5×10^4 cells/cm^2 and allowed to grow to 80% confluence prior to study. Following 48 h in serum-free DMEM, NRCM in 12-well tissue plates were subjected to simulated ischemia, induced by replacement of culture media with sterile-filtered Kreb's buffer (118 mM NaCl, 4.8 mM KCl, 1.2 mM KH2PO4, 1.2 mM MgSO4, 25 mM NaHCO3, […], 11.0 mM glucose, 1.75 mM CaCl2) prior to incubation for 6 h at 37° C. under hypoxia (95% N2-5% CO2, using a hypoxia chamber, QNA International, Melbourne, Australia). At the end of hypoxia, Kreb's buffer was replaced with fresh, sterile-filtered Kreb's buffer, in the presence or absence of FPR agonists Cmpd17b, Cmpd43 (both 1 μM or vehicle, and NRCM were subjected to 48 h reoxygenation at 37° C. At the end of 48 h reoxygenation, NRCM supernatant was collected for assessment of cardiomyocyte injury. Cardiomyocyte release of cTnI was determined using a commercially available, high-sensitivity rat cTnI ELISA kit (Life Diagnostic Inc.) as per the manufacturer's instructions. Separate NRVM on 60 mm dishes were incubated for 48 h at 37° C. in serum-free DMEM, in the presence or absence of FPR agonists Cmpd17b, Cmpd43 (both 1 μM) or vehicle. At the end of 48 h, RNA was extracted and real-time PCR performed (as described previously (Huynh et al. 2012)), to determine the relative gene expression of rat Fprs (rFpr1, rFpr2 and rFpr3, expressed as the threshold cycle number Ct subtracted from the maximum cycle number utilized, 40).

[2] = tested on: mFpr1, mFpr2 expression in AMCF; assay: Fpr gene expression in adult mouse cardiac fibroblasts (real-time PCR); settings: 10 μM, 24 h incubation, TGF-β
Description: AMCFs were starved overnight in serum-free DMEM prior to incubation with the pro-fibrotic stimulus transforming growth factor TGF-β (10 ng/ml) for 24 h at 37° C. FPR agonists Cmpd17b, Cmpd43 (both 10 μM) or vehicle were present 30 min prior to TGF-β. At the end of 24 h stimulation, RNA was extracted and real-time PCR performed to determine the relative gene expression of CTGF and IL-1β, relative to housekeeping gene 18S, as described previously (5). Relative gene expression of mouse Fprs (mFpr1 and mFpr2, expressed as the threshold cycle number Ct subtracted from the maximum cycle number utilized, 40) was also determined at the end of 24 h stimulation.

hFPR1 = target: T1, hFPR1 (Homo sapiens, UniProt P21462); assay: Quantification of biased agonism (operational model) at hFPR1 in CHO cells; settings: for Bias (away from Ca2+i), hFPR1-FlpInCHO cells in vitro: Table 9
T1 construct: expressed in transfected cells
T1 sequence (P21462 1-350): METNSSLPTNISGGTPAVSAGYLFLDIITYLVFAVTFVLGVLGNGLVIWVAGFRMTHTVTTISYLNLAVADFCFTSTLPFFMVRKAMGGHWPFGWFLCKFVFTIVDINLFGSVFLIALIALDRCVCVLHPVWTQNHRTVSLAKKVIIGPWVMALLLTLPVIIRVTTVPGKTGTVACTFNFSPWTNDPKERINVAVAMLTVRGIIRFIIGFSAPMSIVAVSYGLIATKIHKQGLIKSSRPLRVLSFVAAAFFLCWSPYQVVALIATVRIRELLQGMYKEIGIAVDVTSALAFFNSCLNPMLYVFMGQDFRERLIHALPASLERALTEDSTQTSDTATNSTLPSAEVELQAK
Description: To quantify biased agonism mediated by each agonist across the various pathways ([Ca^2+], mobilization, pERK1/2, Akt1/2/3 and inhibition of cAMP accumulation), agonist concentration-response curves were refitted using the operation model normalized to the transduction ratio of a reference agonist (in this case, BIDI-002) as described previously (Stewart G D et al., 2009). Under these conditions, if the test agonist and the reference agonist activate the two pathways through a common receptor conformation, the log [bias factor] should be 0.0 (or bias factor different from 1.0), irrespective of differences in response amplification between pathways. In contrast, significant deviation of log [bias factor] from 0.0 (or bias factor different from 1.0) indicates the involvement of distinct conformations for the different agonists. All affinities, potencies, efficacies, and cooperativity parameters were estimated as logarithms (Christopoulos, 1998). Results are expressed as means±S.E. unless otherwise stated. Statistical analyses were by Student's t test, or one-way ANOVA followed by Dunnett's Comparison or Tukey's post-hoc test, as appropriate. Values of p<0.05 were considered statistically significant.
A “transduction ratio” is firstly derived for each response (τ/KA, where τ represents efficacy, and KA affinity, of the agonist for each GPCR conformational state), extracted from each concentration-response curve. “Bias factors” (ΔΔ(τ/KA)) were then calculated by normalizing the transduction ratio to a reference ligand (in this case, Cmpd43) and reference pathway, which here was Akt1/2/3(Thr308) phosphorylation. Lastly, bias factors were plotted on a ‘web of bias’ to visualize the potential for biased agonism. […] Under these conditions, if the test agonist and the reference agonist activate the two pathways through a common receptor conformation, the log [bias factor] should be 0.0 (i.e. the bias factor 1.0), irrespective of differences in response amplification between pathways. In contrast, significant deviation of log [bias factor] away from 0.0 (i.e. where the bias factor is different to 1.0) indicates the involvement of distinct conformations for the different agonists. All affinities, potencies, efficacies, and cooperativity parameters were estimated as logarithms (Kenakin et al. 2012).
Five signaling pathways were examined, namely pERK1/2-phosphorylation, Akt1/2/3(Ser473)-phosphorylation, Akt1(Thr308)-phosphorylation, increases in Ca2+i and inhibition of forskolin-induced cAMP accumulation. An operational model of agonism was fitted to each concentration-response curve to estimate a transduction ratio (τ/KA) for each agonist, at each pathway assessed, as described (FIG. 21B) (Kenakin et al. 2012). Transduction ratios were normalized to a reference agonist (Cmpd43) and a reference pathway (Akt1/2/3(Thr308)-phosphorylation), generating bias factors and therefore allowing quantitative cross-pathway comparison for each agonist.

| SMILES | NRCM expression of rFpr1 [1] | NRCM expression of rFpr2 [1] | AMCF expression of mFpr1 [2] | AMCF expression of mFpr2 [2] | Bias (away from Ca2+i), hFPR1-FlpInCHO cells in vitro (hFPR1) | Preference to Akt phosphorylation, ERK phosphorylation and cAMP accumulation (degree of bias) (hFPR1; operational model, relative to BIDI-002, hFPR receptors) | Biased agonism / bias away from Ca2+i (hFPR1; in words) |
| --- | --- | --- | --- | --- | --- | --- | --- |
| COc1cccc(Cc2cc(C)nn(C(C)C(=O)Nc3ccc(Br)cc3)c2=O)c1 (centres unmarked) [BIDI-001, N-(4-bromophenyl)-2-[5-(3-methoxybenzyl)-3-methyl-6-oxo-6H-pyridazin-1-yl]-propionamide] | did not significantly influence | did not significantly influence | did not significantly influence | did not significantly influence |  |  |  |
| CC(C)C1C(NC(=O)Nc2ccc(Cl)cc2)C(=O)N(c2ccccc2)N1C (centres unmarked) [BIDI-002] | without impact | tended to reduce | restored |  | No | approximately 20 fold |  |
| Cc1cc(Cc2cccnc2)c(=O)n(CC(=O)Nc2ccc(Cl)cc2)n1 [MIPS-0010396] |  |  |  |  | Strong |  | displays Ca2+i bias |

Source: US10328075B2, “Method of treatment and compounds for use therein” (Baker Heart and Diabetes Institute, priority 2015, dated 2019)
